Entries after “also recorded” stand apart in the source; their conditions may differ.
Tests used:
senescent cells = test: Evaluation of senolytic effects in cell culture; assay type: cell-based
From the text: Genetic knockdown of this gene kills senescent cells.
There are some commercially available analogs of 25HC such as oxysterols (Griffiths et al. (2019) Biochem Soc Trans., 47: 517-526).

[1] = system: senescent human fetal lung fibroblast (IMR-90); test: Cell viability assay (Cell Counting Kit-8) on NS and SEN IMR-90 cells; assay type: cell-based; conditions: treatment started immediately after removing DMSO/250 nM Doxo, 72 hrs
Protocol: Panel A) Timeline for DMSO/250 nM Doxo treatment and early-time point timeline for 24(S)-HC and 27HC treatment on NS and SEN cells. 24(S)HC and 27HC treatment were started immediately after removing DMSO/Doxo. Panel B) and C) Cell viability assay were performed on NS and SEN cells treated with different concentrations of 24(S)HC and 27HC, respectively. 24(S)HC and 27HC treatment were done for 72 hrs. The cell viability was analyzed by Cell Counting Kit-8 according to the manufactures' protocol using Spectra Max 190 (Molecular Devices). The value was normalized to that of DMSO. (Mean +/−SE, n=3, *p<0.05, **p<0.01 and ***p<0.001 by student's t-test).

CRYAB = conditions: Makley et al. (2015) Science, 350: 674-7; cited from earlier work
senescent FAPs = test: Cell viability assay on NS and SEN FAPs treated with 25HC; assay type: cell-based, mouse; conditions: 25HC started immediately after removing DMSO/Doxo (early time point), total 5 days
Protocol: Panel A) Timeline for DMSO/Doxo treatment and early-time point timeline for 25HC treatment on NS and SEN cells. 25HC treatment was started immediately after removing DMSO/Doxo. Panel B) Cell viability assay was performed on NS and SEN cells treated with different concentrations of 25HC. 25HC treatment was done for total 5 days. The value was normalized to that of 0 uM. The average value of 0 M is expressed as 100% (Mean +/−SE, n=3, **p<0.01 and ***p<0.001 by student's t-test vs NS).

senescent mDFs = test: Cell viability assay on NS and SEN mDFs treated with 25HC; assay type: cell-based, mouse; conditions: 72 hrs
Protocol: (§1) Panel A) Timeline for DMSO/Doxo treatment and early-time point timeline for 25HC treatment on NS and SEN cells. 25HC treatment was started immediately after removing DMSO/Doxo. Panel B) Cell viability assay was performed on NS and SEN cells treated with different concentrations of 25HC. 25HC treatment was done for 72 hrs. (Mean +/−SD, n=3, *p<0.05, **p<0.01 vs 0 uM by student's t-test).
as §1, with “late-time” for “early-time”, “7 days” for “immediately”, “n=6, **p<0.01, ***p<0.001, ****p<0.0001,” for “n=3, *p<0.05, **p<0.01”

[2] = system: aged female C57BL/6J p16-3MR mice; test: Pulsed wave velocity (PWV) of the aorta by doppler imaging in aged mice; assay type: in vivo, mouse; conditions: 27 months at baseline, 25HC 50 mpk IP or GCV, 1 and 2 months post treatment, vs untreated controls
Protocol: At baseline, animals were evaluated for blood flow in the aorta using doppler imaging. This determines a measure of vascular stiffness with vessels being more stiff having faster flow.

[3] = system: mouse primary fibro adipogenic progenitors (FAPs); test: qPCR of senescence marker and CRYAB mRNA in Doxo treated FAPs; assay type: cell-based; conditions: normalized to β-actin, vs DMSO
Protocol: As shown, FAPs undergo senescence upon 250 nM of Doxo treatment for 24 hours (Day 0). The mRNA was extracted from DMSO treated NS or Doxo treated SEN FAPs at indicated time points and quantified by qPCR. The amount of mRNA was normalized to the level of β-actin. The graphs show the relative levels of p16INK4a mRNA for DMSO and Doxo treated samples. The average value of DMSO is expressed as 1 (Mean +/−SE, n=3, *p<0.05 by Dunnett's multiple comparisons test vs DMSO).
The cells were treated with 250 nM doxorubicin and incubated for 24 hrs (Day 0). The mRNA was extracted from DMSO treated NS or Doxo treated SEN FAPs at the indicated time points and quantified by qPCR. The amount of mRNA was normalized to the level of β-actin mRNA. The average value of DMSO is expressed as 1 (Mean +/−SE, n=3, **p<0.01 and ***p<0.001 by Dunnett's multiple comparisons test vs DMSO).

[4] = system: mouse dermal fibroblasts (mDFs); test: qPCR of senescence marker and CRYAB mRNA in Doxo treated mDFs; assay type: cell-based; conditions: 250 nM Doxo for 24 hours; day 1, 5, 14; normalized to β-actin, vs DMSO
Protocol: (§2) As shown, mDFs undergo senescence upon 250 nM of Doxo treatment for 24 hours (Day 0). Real-time quantitative PCR (qPCR) was performed on RNA samples isolated from DMSO treated NS (Non-Senescent) mDF cells or Doxo treated SEN (Senescent) mDF cells at day 1, 5, and 14 after Doxo treatment. The amount of mRNA was normalized to the level of β-actin (see, e.g., Demaria et al. (2017) Cancer Discovery, 2: 165-176; and references cited therein). Relative levels of p16INK4a mRNA for DMSO and Doxo treated mDFs was measured. The average value of DMSO is expressed as 1. (Mean +/−SE, n=4, **p<0.01, ****p<0.0001 by Dunnett's multiple comparisons test vs DMSO).
as §2, with “Real-time” for “As shown, mDFs undergo senescence upon 250 nM of Doxo treatment for 24 hours (Day 0). Real-time”, “NS” for “NS (Non-Senescent)”, “SEN” for “SEN (Senescent)”, “CRYAB” for “p16INK4a”, “*p<0.05, ***p<0.001” for “**p<0.01, ****p<0.0001”

Row | SMILES | senolytic effect (senescent cells) | also measured
1 | C[C@@H](CCCC(C)(O)c1ccccc1)C1CCC2C3CC=C4C[C@H](O)CC[C@@]4(C)C3CC[C@]21C (relative stereo) [rel-(3R,10S,13S)-17-[(2S)-6-hydroxy-6-phenylheptan-2-yl]-10,13-dimethyl-2,3,4,7,8,9,10,11,12,13,14,15,16,17-tetradecahydro-1H-cyclopenta[a]phenanthren-3-ol] | novel senolytics | –
2 | C[C@H](CCCC(C)(C)O)[C@H]1CC[C@H]2[C@@H]3[C@H](O)C=C4C[C@@H](O)CC[C@]4(C)[C@H]3CC[C@]12C [7α,25-Dihydroxycholesterol] | novel senolytics | –
3 | CC(C)CCC[C@@H](C)[C@H]1CC[C@H]2[C@@H]3[C@H](O)C=C4C[C@@H](O)CC[C@]4(C)[C@H]3CC[C@]12C [7αHC, 7α-Hydroxycholesterol] | novel senolytics | –
4 | CC(C)CCC[C@@H](C)[C@H]1CC[C@H]2[C@@H]3[C@@H](O)C=C4C[C@@H](O)CC[C@]4(C)[C@H]3CC[C@]12C [7βHC, 7β-Hydroxycholesterol] | novel senolytics | –
5 | CC(C)CC[C@@H](O)[C@@H](C)[C@H]1CC[C@H]2[C@@H]3CC=C4C[C@@H](O)CC[C@]4(C)[C@H]3CC[C@]12C [22(R)HC, 22(R)-Hydroxycholesterol] | novel senolytics | –
6 | CC(C)[C@@H](O)CC[C@@H](C)[C@H]1CC[C@H]2[C@@H]3CC=C4C[C@@H](O)CC[C@]4(C)[C@H]3CC[C@]12C [24(S)HC, 24(S)-Hydroxycholesterol] | novel senolytics | cell viability of senescent vs non-senescent IMR-90 cells [1]: specifically kill senescent human fetal lung fibroblast; also recorded: specifically kill senescent IMR-90 cells
7 | C[C@H](CCCC(C)(C)O)[C@H]1CC[C@H]2[C@@H]3CC=C4C[C@@H](O)CC[C@]4(C)[C@H]3CC[C@]12C [25HC, 25-hydroxycholesterol] | novel senolytic agent | inhibition of CRYAB (CRYAB): effective inhibitor of CRYAB; cell viability of senescent vs non-senescent FAPs (senescent FAPs): specifically kills senescent FAPs; cell viability of senescent vs non-senescent mDFs, late time point (senescent mDFs; 25HC started 7 days after removing DMSO/Doxo): specifically kills senescent mDFs; cell viability of senescent vs non-senescent mDFs, early time point (senescent mDFs; 25HC started immediately after removing DMSO/Doxo): specifically kills senescent mDFs; pulsed wave velocity (PWV) of the aorta [2]: reduces PWV
8 | CC(=O)CCC[C@@H](C)[C@H]1CC[C@H]2[C@@H]3CC=C4C[C@@H](O)CC[C@]4(C)[C@H]3CC[C@]12C [27-Nor-25-ketocholesterol] | novel senolytics | –
9 | C[C@@H](CO)CCC[C@@H](C)[C@H]1CC[C@H]2[C@@H]3CC=C4C[C@@H](O)CC[C@]4(C)[C@H]3CC[C@]12C [27HC, 27-Hydroxycholesterol] | novel senolytics | cell viability of senescent vs non-senescent IMR-90 cells [1]: specifically kill senescent human fetal lung fibroblast; also recorded: specifically kill senescent IMR-90 cells
10 | CC(CCCN(C)C)C1CCC2C3CC=C4C[C@@H](O)CC[C@]4(C)C3CC[C@]12C (stereo partly drawn) [(3S,10R,13R)-17-(5-(dimethylamino)pentan-2-yl)-10,13-dimethyl-2,3,4,7,8,9,10,11,12,13,14,15,16,17-tetradecahydro-1H-cyclopenta[a]phenanthren-3-ol] | novel senolytics | –
11 | C[C@H](CCC(=O)O)[C@H]1CCC2[C@@H]3CC=C4C[C@H](O)CC[C@]4(C)C3CC[C@@]21C (stereo partly drawn) [(3alpha,9xi,14xi)-3-hydroxychol-5-en-24-oic acid] | novel senolytics | –
12 | C=C1CC[C@@H](O)CC1=C/C=C1\CCC[C@]2(C)[C@@H]([C@H](C)CCCC(C)(C)O)CC[C@@H]12 [Calcifediol 25-Hydroxyvitamin D3, reference compound] | novel senolytics | –
13 | COc1cccc2c1C(=O)c1c(O)c3c(c(O)c1C2=O)C[C@@](O)(C(=O)CO)C[C@@H]3O[C@H]1C[C@H](N)[C@H](O)[C@H](C)O1 [Doxo, doxorubicin] | – | senescence induction (relative level of p16INK4a mRNA) ([3]; 250 nM Doxo for 24 hours): induced senescence; expression of CRYAB mRNA ([3]; 250 nM doxorubicin for 24 hrs): significantly increased; relative level of CRYAB mRNA [4]: upregulated CRYAB; relative level of p16INK4a mRNA [4]: induces senescence marker, p16INK4a
14 | Nc1nc(O)c2ncn(COC(CO)CO)c2n1 [GCV, ganciclovir, reference compound] | – | pulsed wave velocity (PWV) of the aorta [2]: reduces PWV
